In brackets after ≈: the same amount, converted by molar mass. Activity calls are given as the source filed them. The rule behind the calls is not given here.
Tests used:
[1] = system: Leishmania donovani; experiment: Antileishmanial activity against Leishmania donovani infected in mouse B10R cells after 72 hrs by DAPI staining based assay; format: functional, organism-based
[2] = system: Plasmodium falciparum; experiment: Antiplasmodial activity against Plasmodium falciparum D6 measured after 72 hrs by SYBR green fluorescence dye based microplate reader analysis; format: functional, organism-based; settings: D6, 72 h
[3] = system: Leishmania major; experiment: Antileishmanial activity against Leishmania major amastigotes infected in mouse RAW 264.7 cells by luciferase reporter gene assay; format: functional, organism-based; settings: RAW264.7
[4] = Selectivity index, ratio of TC50 for human HepG2 cells to EC50 for antiplasmodial activity against Plasmodium falciparum D6; format: toxicity
[5] = Selectivity index, ratio of TC50 for human HepG2 cells to EC50 for antileishmanial activity against Leishmania major amastigotes infected in mouse RAW 264.7 cells; format: toxicity, cell-based
[6] = Selectivity index, ratio of TC50 for mouse C2C12 cells to EC50 for antitrypanosomal activity against Trypanosoma cruzi CaI-72 trypomastigotes infected in mouse C2C12 cells; format: toxicity, cell-based
[7] = system: Trypanosoma cruzi; experiment: Antitrypanosomal activity against Trypanosoma cruzi CaI-72 trypomastigotes infected in mouse C2C12 cells measured after 72 hrs by DAPI staining based assay; format: functional, organism-based; settings: CaI-72, C2C12, 72 h
[8] = system: Trypanosoma cruzi; experiment: Antitrypanosomal activity against Trypanosoma cruzi Tulahuen trypomastigotes infected in mouse NIH/3T3 cells measured after 96 hrs by beta-galactosidase reporter gene assay; format: functional, organism-based; settings: NIH3T3, 96 h
[9] = Selectivity index, ratio of TC50 for mouse B10R cells to EC50 for antileishmanial activity against Leishmania donovani infected in mouse B10R cells; format: toxicity, cell-based
[10] = Aqueous solubility of compound at pH 7.4; format: physicochemical; settings: aqueous solution, read-out: solubility
[11] = Protein binding in human plasma; format: ADME, cell-free; settings: read-out: PPB (converted)
[12] = Intrinsic clearance in rat hepatocytes assessed as per million cells; format: ADME, cell-based, Hepatocyte; settings: read-out: CLH
[13] = Cytotoxicity against human HepG2 cells assessed as reduction in cell viability; format: cell-based; settings: read-out: TC50 (the source's name)
[14] = Intrinsic clearance in human liver microsomes assessed as per mg protein; format: ADME, Microsome
[15] = system: Leishmania donovani; experiment: Antileishmanial activity against Leishmania donovani promastigotes infected in BALB/c mouse assessed as effect on parasitemia at 50 mg/kg bid for 14 days and measured after 5 weeks post infection; format: functional, organism-based

EC50 [1] [nM]	EC50 [2] [nM]	EC50 [3] [nM]	EC50 [7] [nM]	Structure (SMILES)	selectivity ratio [4]	selectivity ratio [5]	selectivity ratio [6]	other results
> 10000	87	1500	2100	CCCn1cc/c(=N\c2cnccn2)c2ccc(-c3cnc(N4CCCN(C)CC4)nc3)cc21	> 379	> 22	1.4	
	71	> 2200	3900	CN1CCCN(c2ncc(-c3ccc(C(=O)Nc4cccc(Cl)c4F)c(O)c3)cn2)CC1	> 310		1.6	
	24	> 23000		Cc1cnc(Nc2ccnc3cc(-c4cnc(N5CCCN(C)CC5)nc4)ccc23)cn1				
> 10000	6	1600	80	COc1ccc(Nc2ccnc3cc(-c4cnc(N5CCCN(C)CC5)nc4)ccc23)cc1Cl	1130	4.3	12	
> 10000	53	> 2200	> 10000	CN1CCN(c2ncc(-c3ccc4c(NC5CCC(N(C)C)CC5)ccnc4c3)cn2)CC1 (stereo unspecified)				
	180	1800		Cc1cc2c(Nc3cnccn3)ccnc2cc1-c1cnc(N2CCN(C)CC2)nc1	33	3.3		EC50 [8]: 22000 nM
	4600	> 24000	5500	COc1ccc(NC(=O)c2cc(F)c(N3CCCN(C)CC3)cc2F)cc1Cl	> 5.2		1.6	
	19	9200		Cc1cncc(Nc2ccnc3cc(-c4cnc(N5CCCN(C)CC5)nc4)ccc23)n1	947	2		
85	6	8200	60	CN1CCCN(c2ncc(-c3ccc4c(Nc5ccc(OC(F)(F)F)cc5)ccnc4c3)cn2)CC1	233	0.8	38	selectivity ratio [9]: 7.8
	74	> 23000		CN1CCN(c2ccc(-c3ccc4c(Nc5cnccn5)ccnc4c3)cc2)CC1				EC50 [8]: 6100 nM
	150	350		CC(C)(C)OC(=O)N1CCN(c2ncc(-c3ccc4c(Nc5cnccn5)ccnc4c3)cn2)CC1	> 207	> 89		EC50 [8]: > 50000 nM
> 10000	75	> 21000	4700	O=S(=O)(c1ccc(-c2ccc3nccc(NCCC4CCOCC4)c3c2)cc1)N1CCOCC1	> 280		1.3	
	77	1700		CN1CCN(c2ncc(Nc3ccc4c(Nc5cnccn5)ccnc4c3)cn2)CC1	312	14		EC50 [8]: 47000 nM
	52	2600	6100	CN1C[C@H]2C[C@@H]1CN2c1ncc(-c2ccc3c(Nc4cnccn4)ccnc3c2)cn1				
	29	24000	7700	CCN1CCN(c2ncc(-c3ccc4c(Nc5cnccn5)ccnc4c3)cn2)CC1				
> 10000	140	220	130	CN1CCCN(S(=O)(=O)c2ccc(-c3ccc4c(Nc5ccc(OC(F)(F)F)cc5)ccnc4c3)cc2)CC1	11	7.3	40	
> 10000	180	2300	> 10000	CN1CCN(c2ncc(-c3ccc4/c(=N/c5cnccn5)ccn(C)c4c3)cn2)CC1	133	> 10		
> 10000	39	> 24000	1300	CN1CCCN(c2ncc(-c3ccc4c(Nc5ccccn5)ccnc4c3)cn2)CC1	487		7.5	
	69	> 24000		Cc1c(-c2cnc(N3CCN(C)CC3)nc2)ccc2c(Nc3cnccn3)ccnc12				EC50 [8]: 25000 nM
	30	> 21000	1900	O=S(=O)(c1ccc(-c2ccc3nccc(NCCN4CCCC4)c3c2)cc1)N1CCOCC1	307		0.89	
	130	> 5200		c1cnc(Nc2ccnc3cc(-c4cnc(N5CCNCC5)nc4)ccc23)cn1	> 300			EC50 [8]: > 50000 nM
	130	7900		CN1CCN(c2ccc(Nc3ccc4c(Nc5cnccn5)ccnc4c3)cc2)CC1				

EC50 [1] [nM]	EC50 [2] [nM]	EC50 [3] [nM]	EC50 [7] [nM]	Structure (SMILES)	selectivity ratio [4]	selectivity ratio [5]	selectivity ratio [6]	other results
> 10000	88	> 4300	> 10000	COc1ccc(NC(=O)c2ccc(-c3cnc(N4CCCN(C)CC4)nc3)cc2O)cc1Cl				
	23	4300	7600	CCCN1CCN(c2ncc(-c3ccc4c(Nc5cnccn5)ccnc4c3)cn2)CC1				
	58	> 24000	220	CN1CC2(CCN(c3ncc(-c4ccc5c(Nc6cnccn6)ccnc5c4)cn3)C2)C1	> 414		1.9	
	> 4300	730		CS(=O)(=O)N1CCN(c2ncc(-c3ccc4c(Nc5cnccn5)ccnc4c3)cn2)CC1		> 45		solubility [10]: 0.06 µM (≈ 0.0278 µg/mL); fraction unbound [11]: 0.05; EC50 [8]: 45000 nM; hepatocyte CLint [12]: 28 µL/min/1e6 cells; CC50 [13]: > 33000 nM; microsomal CLint ([14]; liver microsomes, read-out: CLH): 44 µL/min/mg
	30	> 23000	520	CN1CCC2(CCN(c3ncc(-c4ccc5c(Nc6cnccn6)ccnc5c4)cn3)C2)C1 (stereo unspecified)	533		19	
> 10000	25	> 22000	> 10000	CN1CCCN(c2ncc(-c3ccc4c(Nc5cccnc5)ccnc4c3)cn2)CC1	> 1320			
> 10000	51	1300	160	CN1CCCN(S(=O)(=O)c2ccc(-c3ccc4c(Nc5ccc(Cl)cn5)ccnc4c3)cc2)CC1	35	1.4	21	
640	37	440	210	Cc1ccc2[nH]c3c4ccc(-c5cnc(N6CCCN(C)CC6)nc5)cc4ncc3c2c1	127	10	2.4	selectivity ratio [9]: 3.6
> 10000	> 23000	360	> 10000	COc1ccc(NC(=O)c2ccc(-c3cccc(N4CCOCC4)c3)cc2O)cc1Cl		> 97		
> 10000	24	> 24000	2100	CN1CCN(c2ncc(-c3ccc4c(NCCN5CCCC5)ccnc4c3)cn2)CC1				
> 10000	37	> 2400	> 10000	CN1CCN(c2ncc(-c3ccc4c(N[C@@H]5CCCC[C@H]5O)ccnc4c3)cn2)CC1				
	10	5500	370	CN1CCCN(c2ccc(-c3ccc4c(Nc5cnccn5)ccnc4c3)cc2)CC1	960	1.7	1	solubility [10]: 4.1 µM (≈ 1.68 µg/mL)
8700	26	> 24000	1200	CN1CCN(c2ncc(-c3ccc4c(NCC5CCOCC5)ccnc4c3)cn2)CC1	615		3.2	
	54			CN1CCN(c2ccnc(Nc3ccc4c(Nc5cnccn5)ccnc4c3)n2)CC1				EC50 [8]: > 20000 nM
23	18	> 1500	30	CN1CCN(c2ncc(-c3ccc4c(Nc5ccc(OCc6cccc(F)c6)c(Cl)c5)ccnc4c3)cn2)CC1	167		290	selectivity ratio [9]: 1740; Activity [15]: inactive
	24	24000	1200	CN1CCCN(c2ncc(-c3ccc4c(Nc5cnccn5)ccnc4c3)cn2)CC1				
	46	> 5000	240	CN1CCCN(c2ncc(-c3ccc4c(c3)ncc3c5ccccc5[nH]c43)cn2)CC1	> 161		6.7	
20	120		10000	CN1CCCN(c2ncc(-c3ccc4/c(=N/c5cnccn5)ccn(C)c4c3)cn2)CC1				hepatocyte CLint [12]: 13 µL/min/1e6 cells; Activity [15]: inactive; CLH ([14]; microsomes): 22 µL/min
	180	3300		CN1CCN(c2nccc(Nc3ccc4c(Nc5cnccn5)ccnc4c3)n2)CC1				EC50 [8]: > 50000 nM
4000	25	> 25000	> 10000	CN1CCN(c2ncc(-c3ccc4c(NC5CCOCC5)ccnc4c3)cn2)CC1	600			
> 10000	170	23000	3000	CCn1cc/c(=N\c2cnccn2)c2ccc(-c3cnc(N4CCCN(C)CC4)nc3)cc21	> 200	> 1.5	1	

From ChEMBL document CHEMBL4342474, “Scaffold and Parasite Hopping: Discovery of New Protozoal Proliferation Inhibitors” (ACS Med Chem Lett, 2020)
